From ChEMBL document CHEMBL3045068, “Effect of methomyl and oxamyl soil applications on early control of nematodes and insects” (Pest Manag Sci, 2011)
≈ marks a conversion by molar mass, not a printed value.

How the values were obtained:
[1] = test system: Meloidogyne incognita; experiment: Nematicidal activity against second juvenile stage of Meloidogyne incognita (root-knot nematode) infected pea plant assessed as root fresh weight at 1.68 kg ai/ha applied to soil measured up to 14 days post planting under green house conditions (reference value: 1.83 +/- 0.3 g); format: functional
[2] = test system: Meloidogyne incognita; experiment: Nematicidal activity against second juvenile stage of Meloidogyne incognita (root-knot nematode) infected lima bean plant assessed as shoot dry weight at 1.12 kg ai/ha applied to soil measured during planting under green house conditions (reference value: 1.84 +/- 0.18 g); format: functional
[3] = test system: Phaseolus lunatus; experiment: Phytotoxicity in Phaseolus lunatus (lima bean) plant assessed as emergence at 2.24 kg ai/ha applied to soil measured up to 7 days under green house conditions (reference value: 70 +/- 16%); format: organism-based; conditions: in vivo, other, 168 h
[4] = test system: Meloidogyne incognita; experiment: Nematicidal activity against second juvenile stage of Meloidogyne incognita (root-knot nematode) infected pea plant assessed as root fresh weight at 0.56 kg ai/ha applied to soil under green house conditions (reference value: 1.83 +/- 0.3 g); format: functional
[5] = test system: Meloidogyne incognita; experiment: Nematicidal activity against second juvenile stage of Meloidogyne incognita (root-knot nematode) infected pea plant assessed as plant fresh weight at 1.12 kg ai/ha applied to soil measured up to 7 days post planting under green house conditions (reference value: 4.3 +/- 0.56 g); format: functional
[6] = test system: Meloidogyne incognita; experiment: Nematicidal activity against second juvenile stage of Meloidogyne incognita (root-knot nematode) infected pea plant assessed as plant fresh weight at 0.56 kg ai/ha applied to soil under green house conditions (reference value: 4.3 +/- 0.56 g); format: functional
[7] = test system: Meloidogyne incognita; experiment: Nematicidal activity against second juvenile stage of Meloidogyne incognita (root-knot nematode) infected lima bean plant assessed as root dry weight at 0.56 kg ai/ha applied to soil measured during planting under green house conditions (reference value: 0.5 +/- 0.052 g); format: functional
[8] = test system: Meloidogyne incognita; experiment: Nematicidal activity against second juvenile stage of Meloidogyne incognita (root-knot nematode) infected lima bean plant assessed as reduction in root gall index at 0.56 kg ai/ha applied to soil measured during planting under green house conditions (reference value: 7 +/- 0.27%); format: functional
[9] = test system: Meloidogyne incognita; experiment: Nematicidal activity against second juvenile stage of Meloidogyne incognita (root-knot nematode) infected pea plant assessed as reduction in root gall index at 1.12 kg ai/ha applied to soil measured up to 7 days post planting under green house conditions (reference value: 9.7 +/- 0.30%); format: functional
[10] = test system: Phaseolus lunatus; experiment: Phytotoxicity in Phaseolus lunatus (lima bean) root assessed as root dry weight at 1.12 kg ai/ha applied to soil measured up to 7 days under green house conditions (reference value: 0.36 +/- 0.071 g); format: organism-based; conditions: in vivo, other, 168 h
[11] = test system: Meloidogyne incognita; experiment: Nematicidal activity against second juvenile stage of Meloidogyne incognita (root-knot nematode) infected pea plant assessed as plant fresh weight at 1.68 kg ai/ha applied to soil measured up to 7 days post planting under green house conditions (reference value: 4.3 +/- 0.56 g); format: functional
[12] = test system: Phaseolus lunatus; experiment: Phytotoxicity in Phaseolus lunatus (lima bean) plant assessed as emergence at 1.12 kg ai/ha applied to soil measured up to 7 days under green house conditions (reference value: 70 +/- 16%); format: organism-based; conditions: in vivo, other, 168 h
[13] = test system: Phaseolus lunatus; experiment: Phytotoxicity in Phaseolus lunatus (lima bean) plant assessed as plant dry weight at 1.12 kg ai/ha applied to soil measured up to 7 days under green house conditions (reference value: 1.20 +/- 0.21 g); format: organism-based; conditions: in vivo, other, 168 h
[14] = test system: Meloidogyne incognita; experiment: Nematicidal activity against second juvenile stage of Meloidogyne incognita (root-knot nematode) infected lima bean plant assessed as reduction in root gall index at 1.12 kg ai/ha applied to soil measured during planting under green house conditions (reference value: 7 +/- 0.27%); format: functional
[15] = test system: Meloidogyne incognita; experiment: Nematicidal activity against second juvenile stage of Meloidogyne incognita (root-knot nematode) infected pea plant assessed as emergence at 1.68 kg ai/ha applied to soil measured up to 14 days under green house conditions (reference value: 75 +/- 13%); format: functional
[16] = test system: Meloidogyne incognita; experiment: Nematicidal activity against second juvenile stage of Meloidogyne incognita (root-knot nematode) infected pea plant assessed as reduction in root gall index at 1.68 kg ai/ha applied to soil measured up to 14 days post planting under green house conditions (reference value: 9.7 +/- 0.30%); format: functional
[17] = test system: Meloidogyne incognita; experiment: Nematicidal activity against second juvenile stage of Meloidogyne incognita (root-knot nematode) infected lima bean plant assessed as root dry weight at 1.12 kg ai/ha applied to soil measured during planting under green house conditions (reference value: 0.5 +/- 0.052 g); format: functional
[18] = test system: Meloidogyne incognita; experiment: Nematicidal activity against second juvenile stage of Meloidogyne incognita (root-knot nematode) infected pea plant assessed as root fresh weight at 1.12 kg ai/ha applied to soil measured up to 7 days post planting under green house conditions (reference value: 1.83 +/- 0.3 g); format: functional
[19] = test system: Phaseolus lunatus; experiment: Phytotoxicity in Phaseolus lunatus (lima bean) plant assessed as plant dry weight at 2.24 kg ai/ha applied to soil measured up to 7 days under green house conditions (reference value: 1.20 +/- 0.21 g); format: organism-based; conditions: in vivo, other, 168 h
[20] = test system: Meloidogyne incognita; experiment: Nematicidal activity against second juvenile stage of Meloidogyne incognita (root-knot nematode) infected pea plant assessed as emergence at 1.12 kg ai/ha applied to soil measured up to 7 days under green house conditions (reference value: 75 +/- 13%); format: functional
[21] = test system: Meloidogyne incognita; experiment: Nematicidal activity against second juvenile stage of Meloidogyne incognita (root-knot nematode) infected pea plant assessed as root dry weight at 1.12 kg ai/ha applied to soil measured up to 7 days post planting under green house conditions (reference value: 0.25 +/- 0.041 g); format: functional
[22] = test system: Meloidogyne incognita; experiment: Nematicidal activity against second juvenile stage of Meloidogyne incognita (root-knot nematode) infected pea plant assessed as emergence at 0.56 kg ai/ha applied to soil under green house conditions (reference value: 75 +/- 13%); format: functional
[23] = test system: Meloidogyne incognita; experiment: Nematicidal activity against second juvenile stage of Meloidogyne incognita (root-knot nematode) infested soil containing cucumber seeds assessed as mortality applied post seed germination measured after 7 days under green house conditions; format: functional
[24] = test system: Meloidogyne incognita; experiment: Nematicidal activity against second juvenile stage of Meloidogyne incognita (root-knot nematode) infected pea plant assessed as root dry weight at 0.56 kg ai/ha applied to soil under green house conditions (reference value: 0.25 +/- 0.041 g); format: functional
[25] = test system: Meloidogyne incognita; experiment: Nematicidal activity against second juvenile stage of Meloidogyne incognita (root-knot nematode) infected lima bean plant assessed as shoot dry weight at 0.56 kg ai/ha applied to soil measured during planting under green house conditions (reference value: 1.84 +/- 0.18 g); format: functional
[26] = test system: Meloidogyne incognita; experiment: Nematicidal activity against second juvenile stage of Meloidogyne incognita (root-knot nematode) infected pea plant assessed as root dry weight at 1.68 kg ai/ha applied to soil measured up to 14 days post planting under green house conditions (reference value: 0.25 +/- 0.041 g); format: functional
[27] = test system: Meloidogyne incognita; experiment: Nematicidal activity against second juvenile stage of Meloidogyne incognita (root-knot nematode) assessed as mortality after 48 hr; format: functional
[28] = test system: Meloidogyne incognita; experiment: Nematicidal activity against second juvenile stage of Meloidogyne incognita (root-knot nematode) assessed as mortality after 72 hr; format: functional
[29] = test system: Phaseolus lunatus; experiment: Phytotoxicity in Phaseolus lunatus (lima bean) root assessed as root dry weight at 2.24 kg ai/ha applied to soil measured up to 7 days under green house conditions (reference value: 0.36 +/- 0.071 g); format: organism-based; conditions: in vivo, other, 168 h
[30] = test system: Meloidogyne incognita; experiment: Nematicidal activity against second juvenile stage of Meloidogyne incognita (root-knot nematode) infected lima bean plant assessed as emergence at 0.56 kg ai/ha applied to soil measured during planting under green house conditions (reference value: 83 +/- 5%); format: functional
[31] = test system: Meloidogyne incognita; experiment: Nematicidal activity against second juvenile stage of Meloidogyne incognita (root-knot nematode) infected pea plant assessed as reduction in root gall index at 0.56 kg ai/ha applied to soil under green house conditions (reference value: 9.7 +/- 0.30%); format: functional
[32] = test system: Meloidogyne incognita; experiment: Nematicidal activity against second juvenile stage of Meloidogyne incognita (root-knot nematode) infected lima bean plant assessed as emergence at 1.12 kg ai/ha applied to soil measured during planting under green house conditions (reference value: 83 +/- 5%); format: functional

## CNC(=O)O/N=C(\SC)C(=O)N(C)C [OXAMYL]
[1]
  Activity: 1.76 g
[2]
  Activity: 1.49 g
[3]
  Activity: 70%
[4]
  Activity: 1.36 g
[5]
  Activity: 6 g
[6]
  Activity: 4.4 g
[7]
  Activity: 0.31 g
[8]
  Root_galling_index: 0%
[9]
  Root_galling_index: 0%
[10]
  Activity: 0.35 g
[11]
  Activity: 7.1 g
[12]
  Activity: 80%
[13]
  Activity: 1.48 g
[14]
  Root_galling_index: 0%
[15]
  Activity: 75%
[16]
  Root_galling_index: 0%
[17]
  Activity: 0.41 g
[18]
  Activity: 1.61 g
[19]
  Activity: 1.79 g
[20]
  Activity: 63%
[21]
  Activity: 0.31 g
[22]
  Activity: 63%
[23]
  LC90: 12 µg/mL (≈ 54.7 µM)
[23]; Meloidogyne incognita, Juvenile stage, 168 h
  LC50: 2.8 µg/mL (≈ 12.8 µM)
[24]
  Activity: 0.17 g
[25]
  Activity: 1.09 g
[26]
  Activity: 0.29 g
[27]
  LC90: 11.5 µg/mL (≈ 52.4 µM)
[27]; Meloidogyne incognita, Juvenile stage, 48 h
  LC50: 4 µg/mL (≈ 18.2 µM)
[28]
  LC90: 2.5 µg/mL (≈ 11.4 µM)
[28]; Meloidogyne incognita, Juvenile stage, 72 h
  LC50: 1.7 µg/mL (≈ 7.75 µM)
[29]
  Activity: 0.6 g
[30]
  Activity: 83%
[31]
  Root_galling_index: 0%
[32]
  Activity: 100%
